Results on three molecules are retold here after patent US20110039873A1, “SUBSTITUTED PYRAZOLO[1,5-a] PYRIDINE COMPOUNDS HAVING MULTI-TARGET ACTIVITY” (priority 2009, published 2011).

For data set [1], the target named is T1, recombinant full length human JNK2 enzyme (Homo sapiens, UniProt P45984).
T1 construct: recombinant full length human JNK2 or JNK3 enzyme; purchased Upstate; host or cells: Sf21 cells
Kind of data set: JNK 2 inhibition assay (ATP depletion, luciferase). In kind it is biochemical. The method, then:
In a 96-well plate, recombinant full length human JNK2 or JNK3 enzyme (40 ng) expressed in Sf21 cells (Upstate) was incubated with the substrate ATF2 (3 uM) for 1 hour in the presence of 10 uM ATP. […] IC50 calculations were plotted using a nonlinear regression curve fit.

Data set [2] relates to rat chronic constriction injury (CCI) model of neuropathic pain. The data set can be described thus: Rat chronic constriction injury (CCI) model of neuropathic pain. In kind it is in vivo.
The target of data set [3] is T2, recombinant full length human JNK3 enzyme (Homo sapiens, UniProt P53779).
T2 construct: recombinant full length human JNK2 or JNK3 enzyme; purchased Upstate; host or cells: Sf21 cells
T2 sequence (P53779 whole entry): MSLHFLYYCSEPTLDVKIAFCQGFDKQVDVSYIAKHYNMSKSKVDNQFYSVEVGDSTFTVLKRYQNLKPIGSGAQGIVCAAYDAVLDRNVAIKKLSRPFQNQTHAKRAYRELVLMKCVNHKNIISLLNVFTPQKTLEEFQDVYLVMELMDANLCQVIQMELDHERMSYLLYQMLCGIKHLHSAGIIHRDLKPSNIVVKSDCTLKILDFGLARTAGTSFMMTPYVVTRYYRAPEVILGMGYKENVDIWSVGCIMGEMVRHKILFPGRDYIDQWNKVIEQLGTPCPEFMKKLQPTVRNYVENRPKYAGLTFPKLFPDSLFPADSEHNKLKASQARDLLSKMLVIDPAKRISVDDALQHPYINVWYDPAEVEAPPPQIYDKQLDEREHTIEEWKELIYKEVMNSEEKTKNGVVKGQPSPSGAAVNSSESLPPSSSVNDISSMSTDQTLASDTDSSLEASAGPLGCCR
Kind of data set: JNK 3 inhibition assay (ATP depletion, luciferase). In kind it is biochemical. Conditions: for IC50: 10 uM ATP, ATF2 substrate; for JNK-3 inhibition (in words): see Table 2. The method, then:
In a 96-well plate, recombinant full length human JNK2 or JNK3 enzyme (40 ng) expressed in Sf21 cells (Upstate) was incubated with the substrate ATF2 (3 uM) for 1 hour in the presence of 10 uM ATP. […] The ATP levels were quantified using luciferase with luminescence read on a Victor Light 1420 luminometer. IC50 calculations were plotted using a nonlinear regression curve fit.

In data set [4] the test system is at least one of JNK 3 or JNK 2 and at least one of PDE 10 or PDE 4. Kind of data set: Dual inhibition (phosphodiesterase and JNK). In kind it is biochemical, human. Conditions: IC50 JNK 3 or JNK 2 less than about 5.00 μM and PDE 10 or PDE 4 less than about 20.0 or 30.0 μM. In short, it runs like this:
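JNK2/JNK3: full-length human enzyme with 3 uM ATF2 and 10 uM ATP for 1 h, ATP depletion by luciferase luminescence. PDE4B catalytic domain with 5 uM cAMP, or PDE10A1 with 1 uM cAMP, 1 h; AMP converted to ATP for luminescence. Compounds 0–30 uM; IC50 by nonlinear regression.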

The test system of data set [5] is phosphorylated c-Jun (serine-73). The data set can be described thus: Phosphorylated c-JUN (A-beta), SH-SY5Y. In kind it is cell-based. Conditions: Homo sapiens, Amyloid Beta peptide 30 uM, 3 hours, read-out: p-cJun Abeta SH-SY5Y (EC50 in μM). The procedure:
In 96-well plates either human SH-SY5Y neuroblastoma cells at 2.5×10^4 cells/well or E18 rat neuronal cells at 1.5×10^4 cells/well were seeded. […] Supernatant was discarded and cells were fixed with 4% paraformaldehyde (100 ul/well) for 20 minutes. FACE cell based ELISA assay (Active Motif) was performed specific for quantifying phosphorlyated c-Jun (serine-73).

Data set [6] concerns the target T3, catalytic domain of phosphodiesterase 4B enzyme cloned from human brain (Homo sapiens, UniProt Q07343).
T3 construct: the catalytic domain of phosphodiesterase 4B enzyme; purchased Scottish Biomedical
Kind of data set: PDE4 inhibition assay (PDELight). It is filed as biochemical. To be noted: for IC50: 5 uM cAMP, read-out: PDE 4 Inhibition (IC50 in μM). Put shortly:
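Human PDE4B catalytic domain (40 mU/well) incubated with 5 uM cAMP. AMP formed was converted to ATP and measured by luciferase luminescence (PDELight). IC50 derived by nonlinear regression curve fit.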

Data set [7] relates to phosphorylated c-Jun (serine-73). The data set can be described thus: Phosphorylated c-JUN (A-beta), E18 rat neuronal cells. In kind it is cell-based. To be noted: Amyloid Beta peptide 30 uM, 3 hours, read-out: p-cJun Abeta E18 (EC50 in μM). The procedure: (§1) In 96-well plates either human SH-SY5Y neuroblastoma cells at 2.5×10^4 cells/well or E18 rat neuronal cells at 1.5×10^4 cells/well were seeded. To each well the following was added, Amyloid Beta peptide 1-25 (source) at a concentration of 30 uM, retinoic acid (10 uM) and test compounds (0-30 uM) and incubated for 3 hours. Supernatant was discarded and cells were fixed with 4% paraformaldehyde (100 ul/well) for 20 minutes. FACE cell based ELISA assay (Active Motif) was performed specific for quantifying phosphorlyated c-Jun (serine-73).

Data set [8] addresses T4, recombinant human phosphodiesterase 10A1 enzyme (Homo sapiens, UniProt Q9Y233).
T4 construct: purchased BPS Biosciences; host or cells: Baculovirus infected Sf9 cells
Kind of data set: PDE10 inhibition assay (PDELight). In kind it is biochemical. To be noted: for IC50: 1 uM cAMP, read-out: PDE 10 Inhibition (IC50 in μM); for PDE-10 inhibition (in words): Table 2.

Data set [9] concerns phosphorylated c-Jun (serine-73). The data set can be described thus: Phosphorylated c-JUN (6-OHDA), SH-SY5Y. In kind it is cell-based. To be noted: Homo sapiens, 50 uM 6-hydroxydopamine, 1.5 hours, read-out: p-cJun 6-OHDA SH-SY5Y (EC50 in μM). The procedure: Human SH-SY5Y neuroblastoma cells were cultured in 96-well plates with 2.5×10^4 cells/well and incubated for 48 hours. 6-hydroxydopamine was added at a concentration of 50 uM in the presence or absence of test compounds (0-30 uM) and incubated for 1.5 hours. Supernatant was discarded and cells were fixed with 4% paraformaldehyde (100 ul/well) for 20 minutes. FACE cell based ELISA assay (Active Motif) was performed specific for quantifying phosphorlyated c-Jun (serine-73).

Data set [10] in a line: Oral pharmacokinetic evaluation. It is filed as in vivo, rat. To be noted: Sprague-Dawley rats; for AUC(0-t) / Cmax / half-life: male, rat, plasma; for AUC(0-t): read-out: Oral PK AUClast; for Cmax: read-out: Oral PK Cmax; for half-life: Sprague-Dawley, po, 15 mg/kg. The procedure:
Three male Sprague-Dawley rats were dosed orally via gavage with 15 mg/kg of test compound. Serial blood samples were collected from the jugular vein at 5, 15, and 30 min, 1, 3, and 6 hours post dosing. Samples were processed for plasma via centrifugation and plasma samples were stored frozen prior to analysis via a sensitive and specific HPLC/MS/MS method. PK parameters were calculated using WinNonLin (Pharsight).

Data set [11] deals with Mouse BV-2 microglial cells. The data set can be described thus: BV-2 glial cell assay (TNF-α and MCP-1 by Luminex). In kind it is cell-based. Conditions: for EC50: Mus musculus, BV-2, LPS and IFN-γ activated, 20 hours; for inhibiting glial cell activation (TNF-α and/or MCP-1): Table 3. The procedure: Mouse BV-2 microglial cells were seeded on 96-well plates at a concentration of 3×10^4 cells/well. Cells were activated with 100 ng/mL LPS and IFN-γ (100 ng/mL) in the presence or absence of test compounds (0-30 uM). Following incubation for 20 hours, cells were spun down and supernatant collected. The supernatant was analyzed via Luminex for the presence of TNF-α and MCP-1.

The test system of a further data set is JNK kinase. The data set can be described thus: Amyloid beta-induced phosphorylation of JNK kinase (FIG. 2). It is filed as cell-based. Conditions: neuronal cells stimulated with Amyloid Beta, ELISA. The procedure: as §1
Neuronal cells were stimulated with Amyloid Beta, the Alzheimer's related peptide, resulting in phosphorylation of JNK kinase as measured by ELISA.

The next data set is described as follows: Water solubility. In kind it is physicochemical. Conditions: defined as at least 10 milligrams per milliliter in water at 25° C. and pH 7.0. The method, then: By “water soluble” is meant a compound that is soluble in water to an extent of at least 10 milligrams per milliliter in water at 25° C. and a pH 7.0.
[12] abbreviates: read-out: IC50 value based upon a JNK 2 inhibition assay (range given).
Setting [13] is: read-out: MCP-1 BV-2 (EC50 in μM).
Where [14] appears, read: read-out: TNF-a BV-2 (EC50 in μM).

Read-outs that look alike come from different tables or passages of the source.

T3 sequence (Q07343 330-659 limits assumed): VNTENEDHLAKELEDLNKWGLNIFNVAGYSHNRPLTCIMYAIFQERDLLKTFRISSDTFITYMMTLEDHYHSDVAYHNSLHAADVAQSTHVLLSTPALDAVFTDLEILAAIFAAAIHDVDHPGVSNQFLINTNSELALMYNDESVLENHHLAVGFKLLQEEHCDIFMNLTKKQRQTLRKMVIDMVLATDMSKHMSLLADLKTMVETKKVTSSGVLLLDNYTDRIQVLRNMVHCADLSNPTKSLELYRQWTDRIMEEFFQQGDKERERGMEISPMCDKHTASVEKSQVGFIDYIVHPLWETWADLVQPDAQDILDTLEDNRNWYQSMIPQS
T4 sequence (Q9Y233 1-779 isoform Q9Y233-1): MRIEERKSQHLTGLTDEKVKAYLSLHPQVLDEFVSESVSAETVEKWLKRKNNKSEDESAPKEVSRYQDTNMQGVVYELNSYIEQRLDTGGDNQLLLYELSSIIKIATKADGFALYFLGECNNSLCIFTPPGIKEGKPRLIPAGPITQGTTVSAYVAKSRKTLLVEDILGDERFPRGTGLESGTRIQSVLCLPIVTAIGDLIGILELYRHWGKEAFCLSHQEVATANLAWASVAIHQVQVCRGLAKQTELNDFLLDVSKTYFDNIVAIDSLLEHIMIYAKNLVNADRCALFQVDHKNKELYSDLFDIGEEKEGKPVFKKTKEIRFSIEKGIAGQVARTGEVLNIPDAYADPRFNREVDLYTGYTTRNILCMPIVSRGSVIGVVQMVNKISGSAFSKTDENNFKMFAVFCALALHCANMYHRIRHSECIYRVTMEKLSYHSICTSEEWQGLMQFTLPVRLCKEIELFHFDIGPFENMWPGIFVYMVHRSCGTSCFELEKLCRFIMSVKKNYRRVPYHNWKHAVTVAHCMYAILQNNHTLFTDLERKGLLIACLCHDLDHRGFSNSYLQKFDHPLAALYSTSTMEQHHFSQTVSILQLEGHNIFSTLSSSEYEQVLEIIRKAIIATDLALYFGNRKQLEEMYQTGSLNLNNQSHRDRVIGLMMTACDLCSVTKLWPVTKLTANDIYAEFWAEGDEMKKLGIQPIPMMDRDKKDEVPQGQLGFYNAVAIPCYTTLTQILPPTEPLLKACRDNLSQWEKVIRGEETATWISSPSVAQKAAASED
T1 sequence (P45984 whole entry): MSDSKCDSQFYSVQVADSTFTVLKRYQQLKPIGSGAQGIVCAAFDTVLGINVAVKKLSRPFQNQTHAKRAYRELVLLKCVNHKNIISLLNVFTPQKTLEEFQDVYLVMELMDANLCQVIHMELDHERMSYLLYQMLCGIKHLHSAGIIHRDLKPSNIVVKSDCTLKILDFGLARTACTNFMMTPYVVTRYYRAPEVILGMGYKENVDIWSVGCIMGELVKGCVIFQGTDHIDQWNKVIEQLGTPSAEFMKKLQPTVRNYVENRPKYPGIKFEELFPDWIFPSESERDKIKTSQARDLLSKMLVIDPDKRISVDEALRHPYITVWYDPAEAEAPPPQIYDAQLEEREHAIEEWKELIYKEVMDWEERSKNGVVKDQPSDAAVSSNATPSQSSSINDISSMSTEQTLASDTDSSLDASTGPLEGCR

`CCCNc1nccc(-c2c(C(C)C)nn3ccccc23)n1` [AV1153, 4-(2-isopropylpyrazolo[1,5-a]pyridin-3-yl)-N-propylpyrimidin-2-amine]: the 50% inhibitory concentration (IC50) in data set [1] (setting [12]) was 0.01 to 2 µM; in data set [3] it was 4.1 µM; in [6], 11.5 µM; in [8] it was 8.9 µM. Further, in data set [2] (dose not given, 50% paw withdrawal threshold, von Frey), the “IP CCI efficacy (Change in grams)” value is given as 1.85 grams. For the same molecule, in data set [4], the “dual inhibition (phosphodiesterase and JNK)” value (shortened to “dual inhibition”) was “effective dual inhibitors”. The results for the EC50 in [5], in data set [7] and in data set [9] were more than 30 µM, 3.6 µM and more than 30 µM, respectively. Moreover, the “PDE-4 inhibition (in words)” value in [6] was “particularly effective”. Moreover, the “PDE-10 inhibition (in words)” value in data set [8] is listed as “particularly effective”. For the same molecule, the AUC(0-t) in [10] (15 mg/kg oral gavage) was found to be 32 ng·h/mL. For the same molecule, in [10] (15 mg/kg oral gavage), the Cmax turned out to be 13 ng/mL.

Take `Cc1cccc2c(-c3ccnc(NC4CCCC4)n3)cnn12` [AV1184, N-cyclopentyl-4-(7-methylpyrazolo[1,5-a]pyridin-3-yl)pyrimidin-2-amine]: the results for the IC50 in [3], in [6] and in data set [8] were 0.4 µM, 15.5 µM and 32 µM, respectively. Moreover, the “JNK-3 inhibition (in words)” value in [3] is reported as “particularly effective”. Also, the 50% effective concentration (EC50) in data set [11] (setting [13]) is 0.9 µM; in data set [11] (setting [14]), 0.3 µM; in [5], 8.3 µM; in data set [9] it was 0.7 µM. The “inhibiting glial cell activation (TNF-α and/or MCP-1)” value in data set [11] is “Particularly effective”. Further, in the data set on JNK kinase, the “inhibition of amyloid beta-induced phosphorylation of JNK kinase” value is reported as “capable of inhibiting phosphorylation of JNK kinase in a dose-dependent manner”. In addition, the “dual inhibition” value in data set [4] is listed as “effective dual inhibitors”. Also, the AUC(0-t) in data set [10] (15 mg/kg oral gavage) is less than 10 ng·h/mL. The Cmax in [10] (15 mg/kg oral gavage) was less than 5 ng/mL.

In the case of `c1ccn2nc(C3CC3)c(-c3ccnc(NC4CC4)n3)c2c1` [AV1200, N-cyclopropyl-4-(2-cyclopropylpyrazolo[1,5-a]pyridin-3-yl)pyrimidin-2-amine], the IC50 is 1.6 µM in data set [1] (10 uM ATP, ATF2 substrate, read-out: JNK 2 Inhibition (IC50 in μM)); 0.01 to 2 µM in [1] (setting [12]); 1.9 µM in data set [3]; 2.7 µM in [6]; 7.7 µM in data set [8]. Moreover, the “IP CCI efficacy (Change in grams)” value in [2] (10 mg/kg) was 0 (10 mg/kg); grams; in [2] (20 mg/kg), 1.8 (20 mg/kg) grams. Also, the “PO CCI efficacy (Change in grams)” value is 0 (30 mg/kg); grams in [2] (30 mg/kg) and 1.25 (60 mg/kg) grams in data set [2] (60 mg/kg). Besides, in [3], the “JNK-3 inhibition (in words)” value is given as “particularly effective”. Besides, the concentration for a half-maximal effect (EC50) in data set [11] (setting [13]) amounted to 0.3 µM; in data set [11] (setting [14]), 1 µM. Moreover, the “inhibiting glial cell activation (TNF-α and/or MCP-1)” value in data set [11] is “Particularly effective”. Moreover, the “dual inhibition” value in data set [4] is reported as “effective dual inhibitors”. Moreover, the “PDE-4 inhibition (in words)” value in data set [6] is “particularly effective”. Further, the water soluble entry in the data set “Water solubility” is “water soluble”. The “PDE-10 inhibition (in words)” value in data set [8] is “particularly effective”. For the same molecule, the “half life following oral dosing (in words)” value in data set [10] (oral) was “particularly prolonged half lives”. In addition, the half-life was 4.7 h in data set [10] (15 mg/kg oral gavage, read-out: Oral PK T½ (converted)) and more than 3 h in [10] (oral, read-out: half life following oral dosing). Also, the AUC(0-t) in data set [10] (15 mg/kg oral gavage) amounted to 1700 ng·h/mL. For the same molecule, in [10] (15 mg/kg oral gavage), the Cmax was determined as 420 ng/mL.
